Results reported in US7988984B2, “Insect repellent and attractant and auto-thermostatic membrane vapor control delivery system” (Energy Related Devices, Inc., priority 2005, dated 2011).

Legend:
mosquitoes [1] = assay: Mosquitoes tracking and locating a human with a fresh coating of DEET on the skin; assay type: in vivo; settings: fresh coating of DEET mosquito repellent on skin
[2] = applied on the skin; from the literature search; cited from earlier work
[3] = highest dose (most concentrated DEET sold); cited from earlier work
mosquitoes [4] = assay: Mosquito behaviour at decoy band with a DEET-filled ampoule; assay type: in vivo; settings: only DEET used in ampoule of decoy band
Description: Initially the scents are designed to attract the mosquitoes preferentially to the band 1. When the mosquito is nearing contact the DEET will interfere with the chemical sensors of the mosquito and they will use only infrared and visual cues. If she is close enough, within roughly three meters, she will be attracted to the dark pupil pattern 5 and infrared emissions on the band 1 and at close range land on the border area 3 of red or pink and the white area 4 of the decoy. If not close enough for visual cues she may then wander off with some dose of DEET to hamper her long-range ability to find prey. By landing on the decoy 3,4,5 the Mosquito will obtain a high concentration of DEET vapor disabling and interfering with her chemical sensors.
Chemicals such as citronella may confuse the mosquito's appetite. […] If the user moves or brushes the mosquito away this may be sufficient to put them far enough away from visual cues to attack again, reducing the chances that she will be able to find an authentic victim. The ampoules 7, 8 can be designed with a desired diffusion delivery rate of DEET and scents 10, 28 in sufficient volume to effectively deliver a steady chemical vapor for days.

Structure (SMILES): CCN(CC)C(=O)c1cccc(C)c1 [DEET, N,N-diethyl-3-methylbenzamide]
- ability of mosquitoes to track and locate a human (mosquitoes [1]): still able to track and locate a human
- fraction of DEET absorbed through the skin [2]: 6-15%
- time DEET remains on the skin [3]: roughly 8 hours
- mosquito behaviour toward the decoy (mosquitoes [4]): repeatably attacking the decoy
